Test results published in patent publication US12441775B2, “BCL-W polypeptides and mimetics for treating or preventing chemotherapy-induced peripheral neuropathy and hearing loss” (Dana-Farber Cancer Institute, Inc., priority 2016, dated 2025).

B1: Bclw: Recombinant His-tagged Bclw protein (R&D Systems) introduced by protein transfection (protein, UniProt Q92843 2-193, looked up)
Bcl-2-like protein 2: ATPASAPDTRALVADFVGYKLRQKGYVCGAGPGEGPAADPLHQAMRAAGDEFETRFRRTFSDLAAQLHVTPGSAQQRFTQVSDELFQGGPNWGRLVAFFVFGAALCAESVNKEMEPLVGQVQEWMVAYLETQLADWIHSSGGWAEFTALYGDGALEEARRLREGNWASVRTVLTGAVALGALVTVGAFFASK
modifications: His tag
notes: Recombinant His-tagged Bclw protein (R&D Systems) introduced by protein transfection

Tested on: axons of E15 DRG sensory neurons
Test: Axonal degeneration assay in compartmented chamber cultures (degeneration index)
Type: cell-based, rat
Experimental: Cell culture. Compartmented chamber (Campenot) cultures were prepared as described (see, e.g., Fenstermacher et al., Springer Protocols: Neuromethods, 103:105-124 (2015)), with modifications. Briefly, DRGs from embryonic day 15 (E15) rats of either sex were dissected and trypsinized. DRGs (1.2×10^5 cells) were plated in the center compartment of a Teflon divider (Camp10, Tyler Research; Campenot, 1982) affixed to a p35 culture dish coated with growth factor reduced Matrigel basement membrane (BD Biosciences) 1:45 in DMEM. Cultures were maintained in media consisting of Neurobasal (Invitrogen) with 2% B27 supplement (Invitrogen), 1% penicillin-streptomycin, 1% GlutaMAX (Life Technologies), 0.08% glucose, and 0.3 μM cytosine arabinoside (AraC) at 37° C., 7.5% CO2; BDNF+NGF (PeproTech) were added to the cell body compartment at a concentration of 10 ng/ml and to the axon compartment at a concentration of 100 ng/ml for 2d. On day 3, media was replaced and the AraC was omitted. On day 5, neurotrophins were removed from the cell body compartment and reduced to 1 ng/ml in the axon compartments for 3-5 days. […] For calpain inhibition experiments, 20 μM calpain inhibitor III (VWR) and paclitaxel were added simultaneously to distal axon compartment.
Axonal degeneration assay. Compartmented chamber cultures were fixed at room temperature with 4% PFA diluted 1:2 in media for 10 min, then undiluted 4% PFA for an additional 20 min. Cultures were permeabilized with 0.1% TritonX-100 for 10 min, blocked in 3% BSA and 0.1% Triton X-100 for 1 hour at room temperature, and incubated with mouse anti-Tuj1 (1:400; clone Tuj1; Covance) overnight at 4° C. Cultures were then incubated with goat anti-mouse AlexaFluor (1:1000; Invitrogen) for 1 hour at room temperature and counterstained with DAPI. Images of distal axon tips were obtained using a 40× air objective, and axonal degeneration was quantified as a degeneration index, as previously described (Cosker et al., Neuroscience, 33:5195-5207 (2013)). Apoptosis analysis was carried out on the same cultures by taking images in the cell body compartment and counting total and condensed nuclei in NIH ImageJ software by an observer blind to condition.
Protein and peptide introduction. Recombinant His-tagged Bclw, Bcl2, and BclxL proteins (R&D Systems) or control β-galactosidase protein were introduced into cell bodies or axons of compartmented chamber cultures as described (e.g., Cosker et al., Nature Neuroscience, 19:690-696 (2016)). Briefly, 1 μg/μ1 protein was introduced into cultures using 2 μl Chariot reagent (Active Motif). To confirm expression of His-tagged proteins, cell bodies and axons were lysed in nonionic detergent, and protein lysates were separated as above and blotted with the following antibodies: anti-His (1:1000; Novagen) and anti-pan-actin (1:1000; Cell Signaling Technology). FITC-tagged SAHB peptides (BH4-Bclw, BH4-Bcl2, and BH4-BclxL; stock solutions 1 mM in DMSO) were introduced into cell bodies or axons using 350 ng peptide and 2 μl of Chariot reagent diluted 1:10 in water. Control was no peptide with 2 μl of 1:10 diluted Chariot. To confirm peptide expression, cultures were processed for axonal degeneration assay as above, and FITC immunofluorescence was examined with a 40× air objective. Paclitaxel was added to cultures 1 hour after protein or peptide transfection.

[1] = His-tagged recombinant protein transfected into axons
[2] = protein introduced into cell bodies instead of axons

Molecule | effect on paclitaxel-induced axon degeneration [1] | effect on paclitaxel-induced axon degeneration [2] | effect on paclitaxel-induced axon degeneration (20 μM to axons, added with paclitaxel)
Bcl2: Recombinant His-tagged Bcl2 protein (R&D Systems) introduced by protein transfection | neither BclxL nor Bcl2 prevented degeneration | failed to inhibit paclitaxel-induced degeneration | 
BclxL: Recombinant His-tagged BclxL protein (R&D Systems) introduced by protein transfection | neither BclxL nor Bcl2 prevented degeneration | failed to inhibit paclitaxel-induced degeneration | 
calpain inhibitor III |  |  | prevented paclitaxel-induced degeneration
B1 | completely prevented paclitaxel-induced axon degeneration | failed to inhibit paclitaxel-induced degeneration | 
